Measurements from paper PMC11201061, “Mechanistic Study of Antimicrobial Effectiveness of Cyclic Amphipathic Peptide [R4W4] against Methicillin-Resistant Staphylococcus aureus Clinical Isolates” (Antibiotics, 2024).
≈ marks a conversion by molar mass, not a printed value. Where a SMILES comes first, the peptide text is derived from it.

Tests used:
[1] = tested on: MRSA LAC; experiment: Thermal stability by MIC after heat exposure; format: cell-based, Staphylococcus aureus; conditions: [R4W4] stock exposed to 25, 50, 75 and 100 °C (10 min), then microbroth dilution
Method: As per temperature sensitivity, the [R4W4] stock solution (1.15 mg/mL) in a 2 mL Eppendorf microtube was exposed to 100 °C for 10 min. After the thermal exposure, the [R4W4] antibacterial effectiveness was evaluated against MRSA using a microbroth dilution assay, as explained above.

[2] = 25% fresh human serum in RPMI buffer, 37 °C, peptide 100 µg/mL, 20 h; LC-MS; three independent experiments
Method: (§2) Fresh human serum (4 mL) was centrifuged at 12,500× g for 15 min at 4 °C to remove the lipids. A 25% human serum sample was prepared by adding 375 µL of the human serum supernatant to 1125 µL of RPMI buffer. […] The test sample was incubated in a water bath at 37 °C until a predetermined time interval (0, 1, 2, 4, 6, 8.5, 12, and 20 h). At the time intervals, a 150 µL aliquot test sample was added to a 300 µL cocktail solution [ethanol/formic acid (98:2 v/v) mixture] to cease the reaction. The test samples of aliquots were stored on dry ice for 20 min and then centrifuged at 17,200× g for 20 min. For LC-MS analysis, 150 µL supernatant aliquot test samples were stored at −20 °C [54].
(§3) A 20 μL aliquot of each sample was analyzed using an Xterra MS C18 column (3.9 × 150 mm, 5 μm, Waters, MA, USA), Nexera XR, and Prominence Shimadzu LC-20AD XR systems (Shimadzu Corporation, Kyoto, Japan) coupled with Shimadzu LC-MS-2020 mass spectrometer (Shimadzu, OR, USA). A two-component LC system consisted of mobile phase A (0.1% formic acid and 10% acetonitrile in water) and mobile phase B (0.1% formic acid and 100% acetonitrile). The flow rate was set at 1.0 mL/min. The Xterra MS C18 column at 40 °C was allowed to equilibrate with 95% mobile phase A. Peptides were loaded to the column and washed for 5 min with 95% mobile Phase A. Analytes were separated using a binary gradient of 0–95% mobile Phase B for 25 min. […] MS was conducted in multiple reaction monitoring and positive electrospray ionization mode. Fourteen concentrations of [R4W4] prepared by two-fold dilution of 200 μg/mL to 0.39 μg/mL were used to prepare calibration curves. The calibration curves were plotted using weighted (1/×2) least-squares linear regression analysis of peptide mass spectra area under the curve (AUC) versus concentration.

[3] = in vitro; conditions: human, 25% human serum
Method: as §2, §3

[4] = in vitro; conditions: human, 100% human plasma
Method: At the end of incubation at each of the time points, acetonitrile was added to the incubation mixture, followed by centrifugation. Samples were analyzed by HPLC-MS/MS, and peak areas were recorded for each analyte. The area of precursor compound remaining after each time point relative to the amount remaining at time zero, expressed as percent, is calculated. Subsequently, the half-life (T1/2) is estimated from the slope of the initial linear range of the logarithmic curve of the compound remaining (%) versus time, assuming first-order kinetics. The plasma stability experiment was performed at Eurofins Inc. (San Diego, CA, USA) [56].

[5] = tested on: MRSA USA300; experiment: Checkered board synergy assay with gentamicin; format: cell-based, Staphylococcus aureus
Method: (§1) An amount of 100 µL of [R4W4] peptide test solution at a final concentration of 512 µg/mL was added to each well A-G column 1 in plate A using a multi-channel pipette. A 50 µL MH Broth was added to micro-plate well A-G columns 2–9. Using a multi-channel pipette, a two-fold serial dilution was performed by removing 50 µL solution from column 1 and was added to column 2 with thorough mixing. The micro-pipette was discarded after each transfer. The last portion after column 9 was discarded. In another microplate, 100 µL MHB was added to well B-G columns 1–11 using a multi-channel pipette. A 200 µL gentamicin test solution 512 µg/mL was added to row A, columns 1–11. A two-fold serial dilution was performed by removing 100 µL from rows A to B. The last portion was discarded. Using eight multi-channel pipettes, 50 µL of gentamicin test solution was transferred in the ordinate column A-G row 1 to the first microplate. The plate was incubated at 37 °C for 18–24 h. The fractional inhibitory concentration (FIC) of the antibacterial agents and the fractional inhibitory concentration index (FICI) of the two antibacterial agents were determined to evaluate the synergistic interaction. The FICI was interpreted as follows: FICI ≤ 0.5, synergy; 0.5 < FICI ≤ 1, partial synergy; 1 ≤ FICI < 4, additive effect or indifference; 4 ≤ FICI antagonism and calculated from the mean values from multiple experiments.

[6] = tested on: E. coli 25922; experiment: Checkered board synergy assay with gentamicin; format: cell-based, Escherichia coli
Method: as §1

With `N=C(N)NCCC[C@@H]1NC(=O)[C@H](CCCNC(=N)N)NC(=O)[C@H](CCCNC(=N)N)NC(=O)[C@H](Cc2c[nH]c3ccccc23)NC(=O)[C@H](Cc2c[nH]c3ccccc23)NC(=O)[C@H](Cc2c[nH]c3ccccc23)NC(=O)[C@H](Cc2c[nH]c3ccccc23)NC(=O)[C@H](CCCNC(=N)N)NC1=O` [[R4W4]] (cyclo(RRRRWWWW)) the “MIC after thermal exposure” value [1] was 4 µg/mL (≈ 2.92 µM), the “remaining [R4W4] (intact peptide)” value [2] was “over 70%” and the half-life at 100 µg/mL [3] was over 1200 min. For the same compound, the remaining at 1 h, 100 µg/mL [3] was about 99%, the remaining at 2 h, 100 µg/mL [3] was 93% and the remaining at 6 h, 100 µg/mL [3] was 80%. The remaining at 12 h, 100 µg/mL [3] was 77%, the remaining at 20 h, 100 µg/mL [3] was 76% and the half-life at 1 µM [4] was about 86 min. The “MIC(A+B) ([R4W4] in combination with gentamicin)” value ([5]; MRSA USA300, checkered board) was 1.5 µg/mL, the “MICA ([R4W4] alone)” value ([5]; MRSA USA300, checkered board, 37 °C, 18–24 h, mean values from multiple experiments) was 6 µg/mL and the FICA ([5]; MRSA USA300, fractional inhibitory concentration of [R4W4]) was 0.25. The “reduction in MIC value in combination” value ([5]; MRSA, [R4W4] + gentamicin combination versus alone) was 4 fold, the “MIC(A+B) ([R4W4] in combination with gentamicin)” value ([6]; E. coli 25922, checkered board) was 1.5 µg/mL and the “MICA ([R4W4] alone)” value ([6]; E. coli 25922, checkered board, 37 °C, 18–24 h, mean values from multiple experiments) was 32 µg/mL. For the same compound, the FICA ([6]; E. coli 25922, fractional inhibitory concentration of [R4W4]) was 0.05 and the “reduction in MIC value in combination” value ([6]; E. coli, [R4W4] + gentamicin combination versus alone) was 2 fold.
